# In PMC9857891, “Optimization and Molecular Mechanism of Novel α-Glucosidase Inhibitory Peptides Derived from Camellia Seed Cake through Enzymatic Hydrolysis” (Foods, 2023):
# Where a SMILES comes first, the peptide text is derived from it. Where no end group is shown, it is not given here.
# Experiments:
# α-glucosidase [1] = experiment: α-glucosidase inhibition assay in vitro (pNPG substrate); format: biochemical; conditions: synthesized peptides; read-out: α-glucosidase Inhibitory Activity (IC50)
# Experimental: (§1) The α-glucosidase inhibition activity was performed as described in the literature. In a 96-well enzyme plate, 40 μL of PBS buffer solution (pH 6.86, 0.1 M), 40 μL of sample solution, and 80 μL of α-glucosidase solution (0.2 U/mL) were added, mixed well, and reacted at 37 °C for 15 min. Next, 80 μL of 2.5 mM p-nitrophenyl-α-D-glucopyranoside (pNPG, 0.1 M, pH 6.8 in PBS) was added, mixed well, and reacted at 37 °C for 20 min. Finally, 150 μL of 0.2 M Na2CO3 solution was added to stop the reaction, which was then measured for absorbance values at 405 nm A1. Data were collected for three parallel experiments. (1) α-glucosidase inhibitory activity (%) = A0− (A 1− A2)/ A0 × 100% where A0 is the absorbance of an equal amount of PBS buffer in place of the sample; A2 is the absorbance of an equal amount of PBS buffer in place of the α-glucosidase solution and pNPG solution.
# α-glucosidase [2] = experiment: Simulated gastrointestinal digestion in vitro, residual α-glucosidase inhibitory activity; format: in vitro ADME; conditions: 37 °C; for loss of α-glucosidase inhibitory activity after SGID: SGF 120 min then SIF 120 min; for loss of α-glucosidase inhibitory activity after simulated gastric digestion (SGD): SGF, 120 min
# Experimental: as §1
# The method of simulated gastrointestinal digestion (SGID) follows the previous method with slight modifications. Simulated gastric fluid (SGFs) and simulated intestinal fluid (SIFs) are both purchased from Shanghai Yuanye Biotechnology Co., Ltd., as previously mentioned. In brief, the synthesized peptide LLVLYYEY and LLLLPSYSEF was pre-dissolved to 4 mg/mL in pure water. LLVLYYEY and LLLLPSYSEF aqueous solution was mixed with SGFs (1:1, v/v) and digested at 37 °C for 120 min. SIFs (1:1, v/v) was then mixed and the mixture was incubated for 120 min. After 120 min of incubation, the pH was adjusted to 7 by NaOH (1M) to stop the simulated gastric digestion (SGD) phase; after 240 min of incubation the simulated intestinal digestion (SID) phase was stopped by a boiling water bath for 10 min.
IC50 (α-glucosidase [1]) [mM],Molecule,loss of α-glucosidase inhibitory activity after SGID (α-glucosidase [2]),loss of α-glucosidase inhibitory activity after simulated gastric digestion (SGD) (α-glucosidase [2])
> 10,"C[C@H](N)C(=O)N[C@H](C(=O)N[C@@H](CC(N)=O)C(=O)N1CCC[C@H]1C(=O)N1CCC[C@H]1C(=O)N[C@@H](CS)C(=O)N[C@@H](CS)C(=O)N[C@@H](CCC(N)=O)C(=O)N1CCC[C@H]1C(=O)O)[C@@H](C)O [ATNPPCCQP, Ala-Thr-Asn-Pro-Pro-Cys-Cys-Gln-Pro] (H-ATNPPCCQP-OH)",,
4.32,"CC(C)C[C@H](N)C(=O)N[C@@H](CS)C(=O)N[C@@H](CC(=O)O)C(=O)N[C@@H](CCC(N)=O)C(=O)N[C@@H](CS)C(=O)N1CCC[C@H]1C(=O)N1CCC[C@H]1C(=O)N[C@@H](Cc1c[nH]cn1)C(=O)N[C@@H](C)C(=O)O [LCDQCPPHA, Leu-Cys-Asp-Gln-Cys-Pro-Pro-His-Ala] (H-LCDQCPPHA-OH)",,
,"LLLLPSYSEF [LLLLPSYSEF, Leu-Leu-Leu-Leu-Pro-Ser-Tyr-Ser-Glu-Phe]",significant loss of activity,essentially no loss
,"LLVLYYEY [LLVLYYEY, Leu-Leu-Val-Leu-Tyr-Tyr-Glu-Tyr]",significant loss of activity,essentially no loss
